Data reported in the supplement of paper PMC8671470.
± gives the standard deviation of the averaged measurements.

Assays:
Conditions in all cases: 72 h
BV-173 [1] = test system: BV-173
Summary of the method: (§1)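 Each of fifteen myeloid leukaemia cell lines was seeded in RPMI 1640 at a density titrated to its linear growth range. The cells were incubated for 72 h at 37 °C and 5% CO2 with compounds at five tenfold doses from 1 to 10,000 nM, in duplicate. After ATP luminescence was normalised to vehicle and to a positive control at 10 µM, four-parameter log-logistic curves were fitted. These curves gave the IC50.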

HEL [2] = test system: HEL
Summary of the method: as §1

HL-60 [3] = test system: HL-60
Summary of the method: as §1

K-562 [4] = test system: K-562
Summary of the method: as §1

KCL-22 [5] = test system: KCL-22
Summary of the method: as §1

KG-1 [6] = test system: KG-1
Summary of the method: as §1

KU-812 = test system: KU-812
Summary of the method: as §1

LAMA-84 [7] = test system: LAMA-84
Summary of the method: as §1

ML-2 [8] = test system: ML-2
Summary of the method: as §1

MOLM-13 [9] = test system: MOLM-13
Summary of the method: as §1

MV4-11 [10] = test system: MV4-11
Summary of the method: as §1

Mono-Mac-6 = test system: Mono-Mac-6
Summary of the method: as §1

NOMO-1 = test system: NOMO-1
Summary of the method: as §1

SHI-1 [11] = test system: SHI-1
Summary of the method: as §1

THP-1 = test system: THP-1
Summary of the method: as §1

HL-60 [12] = experiment: cell viability (% survival relative to DMSO control); higher = less cytotoxic
Summary of the method: (§2)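 HL-60 cells grown in RPMI 1640 with 10% FBS were rescreened against the full library in 384-well plates, in duplicate, at five tenfold concentrations from 1 to 10,000 nM, alongside DMSO or 100 nM of one of three metabolic inhibitors for 72 h at 37 °C, 5% CO2. Reference wells contained DMSO or 10 μM proteasome inhibitor. Viability was read with CellTiter-Glo and normalised to these reference wells, and where reported, area under the curve was taken from four-parameter log-logistic fits in drc and PharmacoGx.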

BV-173 [13] = experiment: cell viability (% survival relative to DMSO control, bortezomib = 0%); higher = less cytotoxic
Summary of the method: (§3)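 In 384-well plates pre-printed with compounds at 1, 10, 100, 1000 or 10000 nM, duplicate wells received cells from 10 AML and 5 CML lines at densities within the linear growth range. The plates stayed at 37 °C with 5% CO2 for 72 h before CellTiter-Glo luminescence was recorded. Each entry is averaged percent survival. Scaling placed vehicle at 100% and a 10 µM positive control at 0%.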

HEL [14] = experiment: as above
Summary of the method: as §3

HL-60 [15] = experiment: as above
Summary of the method: as §3

K-562 [16] = experiment: as above
Summary of the method: as §3

KCL-22 [17] = experiment: as above
Summary of the method: as §3

KG-1 [18] = experiment: as above
Summary of the method: as §3

LAMA-84 [19] = experiment: as above
Summary of the method: as §3

ML-2 [20] = experiment: as above
Summary of the method: as §3

MOLM-13 [21] = experiment: as above
Summary of the method: as §3

MV4-11 [22] = experiment: as above
Summary of the method: as §3

SHI-1 [23] = experiment: as above
Summary of the method: as §3

HL-60 [24] = experiment: area under dose-response curve (viability, 1 nM-10 uM) (fraction (0-1)); higher = more sensitive
Summary of the method: as §2

O=C1N[C@@H]2[C@@H](O)[C@@H](O)[C@H](O)[C@@H](CO)N2C1=O [Kifunensine]
Conditions	IC50 (cell viability) [µM]
BV-173 [1]	> 10
HEL [2]	> 10
HL-60 [3]	> 10
K-562 [4]	> 10
KCL-22 [5]	> 10
KG-1 [6]	> 10
KU-812	> 10
LAMA-84 [7]	> 10
ML-2 [8]	> 10
MOLM-13 [9]	> 10
MV4-11 [10]	> 10
Mono-Mac-6	> 10
NOMO-1	> 10
SHI-1 [11]	> 10
THP-1	> 10

cell viability [%], HL-60 [12]
Conditions	0.001 µM	0.01 µM	0.1 µM	1 µM	10 µM
co-treatment: AZD3965 100 nM	93.1 ± 5.7	81.8 ± 28	101 ± 2.2	99.3 ± 1.2	108 ± 4.8
co-treatment: DMSO vehicle	96.82 ± 0.8	99.24 ± 0.24	103 ± 3.2	101 ± 3.6	108 ± 1.7
co-treatment: GSK2194069 100 nM	95.7 ± 6.9	79.8 ± 27	101 ± 1.8	91.23 ± 0.73	91.9 ± 9.2
co-treatment: pictilisib 100 nM	85.7 ± 3.2	112 ± 7.8	95.7 ± 2.5	104 ± 2.7	111.3 ± 0.3

Conditions	area under dose-response curve, co-treatment: AZD3965 100 nM	area under dose-response curve, co-treatment: DMSO vehicle	area under dose-response curve, co-treatment: GSK2194069 100 nM	area under dose-response curve, co-treatment: pictilisib 100 nM	cell viability, 1 nM [%]	cell viability, 10 nM [%]	cell viability, 100 nM [%]	cell viability, 1000 nM [%]	cell viability, 10000 nM [%]
BV-173 [13]	–	–	–	–	95	106	114	86.7	90.5
HEL [14]	–	–	–	–	99.6	105	125	87.8	109
HL-60 [15]	–	–	–	–	102	90.6	120	120	144
HL-60 [24]	< 0.0301	< 0.0301	< 0.0301	< 0.0301	–	–	–	–	–
K-562 [16]	–	–	–	–	93.2	102	99.3	87.6	107
KCL-22 [17]	–	–	–	–	107	104	102	89	101
KG-1 [18]	–	–	–	–	96.1	93.2	112	88.6	85.6
LAMA-84 [19]	–	–	–	–	103	98.6	114	84.4	107
ML-2 [20]	–	–	–	–	96.5	95.4	116	95.7	90.9
MOLM-13 [21]	–	–	–	–	76.3	105	117	81.3	130
MV4-11 [22]	–	–	–	–	96.4	96.3	103	82.9	72.1
SHI-1 [23]	–	–	–	–	96.9	99.9	105	107	136

CC(C)(CCCCCCCCCCC(C)(C)CC(=O)O)CC(=O)O [MEDICA 16]
Conditions	IC50 (cell viability) [µM]
BV-173 [1]	> 10
HEL [2]	> 10
HL-60 [3]	> 10
K-562 [4]	> 10
KCL-22 [5]	> 10
KG-1 [6]	> 10
KU-812	> 10
LAMA-84 [7]	> 10
ML-2 [8]	> 10
MOLM-13 [9]	> 10
MV4-11 [10]	> 10
Mono-Mac-6	> 10
NOMO-1	> 10
SHI-1 [11]	> 10
THP-1	> 10

cell viability [%], HL-60 [12]
Conditions	0.001 µM	0.01 µM	0.1 µM	1 µM	10 µM
co-treatment: AZD3965 100 nM	100 ± 4.3	104 ± 9.4	105 ± 13	101 ± 8.2	99.5 ± 3.1
co-treatment: DMSO vehicle	98.9 ± 3.6	98.3 ± 3.4	103 ± 3.3	101 ± 1.5	98 ± 1.4
co-treatment: GSK2194069 100 nM	101.1 ± 0.91	87.2 ± 19	99 ± 5.8	102 ± 2.8	93.201 ± 0.073
co-treatment: pictilisib 100 nM	97.8 ± 6.5	100 ± 6.5	93.9 ± 4	90 ± 2.5	99.96 ± 0.98

Conditions	area under dose-response curve, co-treatment: AZD3965 100 nM	area under dose-response curve, co-treatment: DMSO vehicle	area under dose-response curve, co-treatment: GSK2194069 100 nM	area under dose-response curve, co-treatment: pictilisib 100 nM	cell viability, 1 nM [%]	cell viability, 10 nM [%]	cell viability, 100 nM [%]	cell viability, 1000 nM [%]	cell viability, 10000 nM [%]
BV-173 [13]	–	–	–	–	105	89.4	98.5	94.2	106
HEL [14]	–	–	–	–	116	108	95.2	110	119
HL-60 [15]	–	–	–	–	109	114	98	116	108
HL-60 [24]	< 0.0301	< 0.0301	< 0.0301	< 0.0301	–	–	–	–	–
K-562 [16]	–	–	–	–	114	108	103	96.8	117
KCL-22 [17]	–	–	–	–	119	97.4	107	107	98.7
KG-1 [18]	–	–	–	–	91.7	95.8	98.6	107	99.8
LAMA-84 [19]	–	–	–	–	110	85.8	99.3	98.6	97.8
ML-2 [20]	–	–	–	–	104	99.4	96.3	101	91.5
MOLM-13 [21]	–	–	–	–	113	97.1	107	79.4	96.7
MV4-11 [22]	–	–	–	–	124	105	94	102	116
SHI-1 [23]	–	–	–	–	121	104	102	98.2	90.7

Cc1nnc(-c2ccc(N3CCC(Oc4ccccc4C(F)(F)F)CC3)nn2)s1 [MF-438]
Conditions	IC50 (cell viability) [µM]
BV-173 [1]	> 10
HEL [2]	> 10
HL-60 [3]	> 10
K-562 [4]	0.0472
KCL-22 [5]	2.29
KG-1 [6]	> 10
KU-812	> 10
LAMA-84 [7]	> 10
ML-2 [8]	> 10
MOLM-13 [9]	0.0687
MV4-11 [10]	9.32
Mono-Mac-6	> 10
NOMO-1	> 10
SHI-1 [11]	> 10
THP-1	> 10

cell viability [%], HL-60 [12]
Conditions	0.001 µM	0.01 µM	0.1 µM	1 µM	10 µM
co-treatment: AZD3965 100 nM	88.9 ± 8.7	99.9 ± 1.6	104 ± 2.1	101 ± 0.18	89.8 ± 4.6
co-treatment: DMSO vehicle	101 ± 14	101.6 ± 0.88	102 ± 4	100 ± 3.9	94.9 ± 1.6
co-treatment: GSK2194069 100 nM	92.9 ± 23	104 ± 5.6	93.3 ± 0.56	101 ± 3.9	86.5 ± 1.9
co-treatment: pictilisib 100 nM	109 ± 2.6	106 ± 2.9	100 ± 1.9	94.07 ± 0.88	98.1 ± 7.1

Conditions	area under dose-response curve, co-treatment: AZD3965 100 nM	area under dose-response curve, co-treatment: DMSO vehicle	area under dose-response curve, co-treatment: GSK2194069 100 nM	area under dose-response curve, co-treatment: pictilisib 100 nM	cell viability, 1 nM [%]	cell viability, 10 nM [%]	cell viability, 100 nM [%]	cell viability, 1000 nM [%]	cell viability, 10000 nM [%]
BV-173 [13]	–	–	–	–	96.1	108	89.4	137	99.4
HEL [14]	–	–	–	–	102	91.9	106	122	106
HL-60 [15]	–	–	–	–	93.6	92.5	87	127	56.5
HL-60 [24]	< 0.0301	< 0.0301	< 0.0301	< 0.0301	–	–	–	–	–
K-562 [16]	–	–	–	–	97	103	32.4	38.2	38.1
KCL-22 [17]	–	–	–	–	103	99.6	69	61.3	49.5
KG-1 [18]	–	–	–	–	62.5	133	94.3	115	106
LAMA-84 [19]	–	–	–	–	93.4	85.4	88	76.9	92.6
ML-2 [20]	–	–	–	–	96	114	98.6	117	88.3
MOLM-13 [21]	–	–	–	–	63.7	86.7	33.9	41.3	36.6
MV4-11 [22]	–	–	–	–	91	109	91.2	99.2	45.3
SHI-1 [23]	–	–	–	–	98.9	98.2	102	113	80.9
